Reference: ChEMBL document CHEMBL1130917, “The design, synthesis, and structure-activity relationships of a series of macrocyclic MMP inhibitors” (Bioorg Med Chem Lett, 1998)

How the values were obtained:
[1] = target: T1, Matrilysin (Homo sapiens, UniProt P09237); assay: Inhibition of fibroblast matrilysin (MMP-7)
T1 sequence (P09237 whole entry): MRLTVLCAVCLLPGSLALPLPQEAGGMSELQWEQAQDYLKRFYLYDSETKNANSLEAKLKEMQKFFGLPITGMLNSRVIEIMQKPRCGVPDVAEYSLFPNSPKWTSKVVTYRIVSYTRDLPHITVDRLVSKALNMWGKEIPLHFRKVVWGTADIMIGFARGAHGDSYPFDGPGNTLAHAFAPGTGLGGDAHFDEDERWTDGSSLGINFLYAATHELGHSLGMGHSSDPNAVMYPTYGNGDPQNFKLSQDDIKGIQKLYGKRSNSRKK

[2] = target: 72 kDa type IV collagenase (Homo sapiens, UniProt P08253); assay: Inhibition of fibroblast gelatinase A (MMP-2)
72 kDa type IV collagenase, sequence (P08253 whole entry): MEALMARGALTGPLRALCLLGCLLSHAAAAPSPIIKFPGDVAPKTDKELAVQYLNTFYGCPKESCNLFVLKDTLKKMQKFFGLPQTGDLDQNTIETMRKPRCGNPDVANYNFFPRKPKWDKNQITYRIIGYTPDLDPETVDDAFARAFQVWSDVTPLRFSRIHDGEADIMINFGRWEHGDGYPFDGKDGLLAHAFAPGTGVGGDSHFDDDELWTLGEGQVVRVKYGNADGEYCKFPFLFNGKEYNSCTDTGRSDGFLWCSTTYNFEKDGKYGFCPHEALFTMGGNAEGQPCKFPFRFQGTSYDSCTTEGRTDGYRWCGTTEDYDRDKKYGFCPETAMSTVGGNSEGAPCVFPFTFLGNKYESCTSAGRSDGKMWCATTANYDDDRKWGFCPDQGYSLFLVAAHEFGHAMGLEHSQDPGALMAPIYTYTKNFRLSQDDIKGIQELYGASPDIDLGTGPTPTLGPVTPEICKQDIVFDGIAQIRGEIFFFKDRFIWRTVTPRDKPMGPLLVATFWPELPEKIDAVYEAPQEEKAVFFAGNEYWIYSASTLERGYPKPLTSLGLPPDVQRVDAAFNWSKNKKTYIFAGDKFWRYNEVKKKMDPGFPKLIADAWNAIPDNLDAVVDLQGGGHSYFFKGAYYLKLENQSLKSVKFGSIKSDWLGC

[3] = target: T2, Interstitial collagenase (Homo sapiens, UniProt P03956); assay: Inhibition of fibroblast collagenase (MMP-1)
T2 sequence (P03956 whole entry): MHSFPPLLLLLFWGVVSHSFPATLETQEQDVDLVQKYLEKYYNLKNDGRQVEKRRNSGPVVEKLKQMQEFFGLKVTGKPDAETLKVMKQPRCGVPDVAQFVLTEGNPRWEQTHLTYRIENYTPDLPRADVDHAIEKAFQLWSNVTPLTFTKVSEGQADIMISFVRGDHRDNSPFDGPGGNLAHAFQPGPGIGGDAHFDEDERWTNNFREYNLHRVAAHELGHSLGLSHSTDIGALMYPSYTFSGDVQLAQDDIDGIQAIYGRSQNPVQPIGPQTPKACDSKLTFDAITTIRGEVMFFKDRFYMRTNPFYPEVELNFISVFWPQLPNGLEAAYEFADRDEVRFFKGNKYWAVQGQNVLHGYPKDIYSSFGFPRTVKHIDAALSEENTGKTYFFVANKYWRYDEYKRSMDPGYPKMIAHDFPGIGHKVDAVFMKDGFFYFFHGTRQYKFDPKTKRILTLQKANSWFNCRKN

[4] = target: Stromelysin-1 (Homo sapiens, UniProt P08254); assay: Inhibition of fibroblast stromelysin (MMP-3)
Stromelysin-1, sequence (P08254 whole entry): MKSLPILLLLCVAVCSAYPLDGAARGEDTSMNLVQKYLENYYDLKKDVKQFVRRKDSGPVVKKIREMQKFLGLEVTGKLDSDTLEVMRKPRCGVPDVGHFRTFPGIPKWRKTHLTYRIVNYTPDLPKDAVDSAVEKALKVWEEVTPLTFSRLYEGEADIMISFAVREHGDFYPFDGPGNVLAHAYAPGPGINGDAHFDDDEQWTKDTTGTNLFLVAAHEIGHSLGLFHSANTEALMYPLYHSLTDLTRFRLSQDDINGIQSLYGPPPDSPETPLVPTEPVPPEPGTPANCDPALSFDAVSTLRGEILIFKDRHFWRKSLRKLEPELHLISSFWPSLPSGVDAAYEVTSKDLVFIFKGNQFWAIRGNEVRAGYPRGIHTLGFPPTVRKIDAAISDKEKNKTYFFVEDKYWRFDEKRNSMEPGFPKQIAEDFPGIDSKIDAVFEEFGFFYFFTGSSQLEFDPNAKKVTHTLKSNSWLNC

Row | SMILES | IC50 [1] | IC50 [2] | IC50 [3] | IC50 [4]
1 | CNC(=O)[C@@H]1Cc2ccc(cc2)OCCCCCC[C@H](C(=O)NO)[C@@H](CC(C)C)C(=O)N1 | 5.7 nM | 5.9 nM | 2.2 nM | –
2 | CC(C)C[C@H]1C(=O)N[C@H](C(=O)NCCN(C)C)Cc2ccc(cc2)OCCCC[C@@H]1C(=O)NO | 4.2 nM | 6.5 nM | 6.6 nM | 12 nM
3 | CNC(=O)[C@@H]1Cc2ccc(cc2)OCCCCC[C@H](C(=O)O)[C@@H](CC(C)C)C(=O)N1 | 110 nM | 1400 nM | 1400 nM | 75 nM
4 | CNC(=O)[C@@H]1Cc2ccc(cc2)OCCC[C@H](C(=O)O)[C@@H](CC(C)C)C(=O)N1 | 900 nM | 14000 nM | > 10000 nM | –
5 | CNC(=O)[C@@H]1Cc2ccc(cc2)OCCC[C@H](C(=O)NO)[C@@H](CC(C)C)C(=O)N1 | 3 nM | 2.6 nM | 3 nM | –
6 | CC(C)C[C@H]1C(=O)N[C@H](C(=O)Nc2ccccn2)Cc2ccc(cc2)OCCCC[C@@H]1C(=O)NO | 1.6 nM | 2.1 nM | 4.6 nM | –
7 | CC(C)C[C@H]1C(=O)N[C@H](C(=O)NCCc2ccc(S(N)(=O)=O)cc2)Cc2ccc(cc2)OCCCC[C@@H]1C(=O)NO | 25 nM | 1.9 nM | 3 nM | –

Continued, values first:

Row | IC50 [1] | IC50 [2] | IC50 [3] | IC50 [4] | SMILES
8 | 440 nM | 230 nM | 110 nM | – | CNC(=O)[C@@H]1Cc2ccc(cc2)OCCCC[C@@H](C(=O)NO)[C@@H](CC(C)C)C(=O)N1
9 | 180 nM | 0.3 nM | 210 nM | 1.8 nM | CNC(=O)[C@@H]1Cc2ccc(cc2)OCCCC[C@H](C(=O)NO)[C@@H](CCCCOCc2ccccc2)C(=O)N1
10 | 5.9 nM | 0.1 nM | 54 nM | – | CCCc1ccc(CC[C@H]2C(=O)N[C@H](C(=O)NC)Cc3ccc(cc3)OCCCC[C@@H]2C(=O)NO)cc1
11 | 1.6 nM | 2.2 nM | 1.8 nM | – | CNC(=O)[C@@H]1Cc2ccc(cc2)OCCCC[C@H](C(=O)NO)[C@@H](CC(C)C)C(=O)N1
12 | 2.6 nM | 2.3 nM | 2.1 nM | – | CNC(=O)[C@@H]1Cc2ccc(cc2)OCCCCC[C@H](C(=O)NO)[C@@H](CC(C)C)C(=O)N1
13 | 2.8 nM | 0.8 nM | 6.1 nM | 9.1 nM | CNC(=O)[C@@H]1Cc2ccc(cc2)OCCCC[C@H](C(=O)NO)[C@@H](CCCc2ccc(C)cc2)C(=O)N1
14 | 2.5 nM | 3.8 nM | 2.7 nM | 4.2 nM | CSCCNC(=O)[C@@H]1Cc2ccc(cc2)OCCCC[C@H](C(=O)NO)[C@@H](CC(C)C)C(=O)N1
